Results as given in patent US20230009626A1 (ICHNOS SCIENCES S.A., priority 2018, published 2023).

Target: HPK1 (MAP4K1) (Homo sapiens, UniProt Q92918)
Test: FRET Assay for HPK1 (MAP4K1): one step binding assay, displacement of labeled tracer
Conditions: for inhibition at 1 µM: 1 μM compound; for inhibition at 1 µM / inhibition at 10 µM: FRET ratio 665/620, percent of control; for inhibition at 10 µM: 10 μM compound; for IC50: dose response curve, nonlinear regression
Method in brief: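 TR-FRET tracer-displacement binding assay. GST-tagged HPK1 (10 nM) and Eu-anti-GST antibody (4 nM) were pre-incubated with compound on ice for 15 min in 50 mM HEPES pH 7.5, 10 mM MgCl2, 1 mM EGTA, 0.01% Brij-35 (3% DMSO final). Kinase Tracer 222 (20 nM) was then added for 1 h at room temperature. IC50 came from nonlinear regression of percent of control; percent inhibition was also given at 1.0 and 10.0 μM.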

Sequence of HPK1 (MAP4K1) (Q92918 whole entry): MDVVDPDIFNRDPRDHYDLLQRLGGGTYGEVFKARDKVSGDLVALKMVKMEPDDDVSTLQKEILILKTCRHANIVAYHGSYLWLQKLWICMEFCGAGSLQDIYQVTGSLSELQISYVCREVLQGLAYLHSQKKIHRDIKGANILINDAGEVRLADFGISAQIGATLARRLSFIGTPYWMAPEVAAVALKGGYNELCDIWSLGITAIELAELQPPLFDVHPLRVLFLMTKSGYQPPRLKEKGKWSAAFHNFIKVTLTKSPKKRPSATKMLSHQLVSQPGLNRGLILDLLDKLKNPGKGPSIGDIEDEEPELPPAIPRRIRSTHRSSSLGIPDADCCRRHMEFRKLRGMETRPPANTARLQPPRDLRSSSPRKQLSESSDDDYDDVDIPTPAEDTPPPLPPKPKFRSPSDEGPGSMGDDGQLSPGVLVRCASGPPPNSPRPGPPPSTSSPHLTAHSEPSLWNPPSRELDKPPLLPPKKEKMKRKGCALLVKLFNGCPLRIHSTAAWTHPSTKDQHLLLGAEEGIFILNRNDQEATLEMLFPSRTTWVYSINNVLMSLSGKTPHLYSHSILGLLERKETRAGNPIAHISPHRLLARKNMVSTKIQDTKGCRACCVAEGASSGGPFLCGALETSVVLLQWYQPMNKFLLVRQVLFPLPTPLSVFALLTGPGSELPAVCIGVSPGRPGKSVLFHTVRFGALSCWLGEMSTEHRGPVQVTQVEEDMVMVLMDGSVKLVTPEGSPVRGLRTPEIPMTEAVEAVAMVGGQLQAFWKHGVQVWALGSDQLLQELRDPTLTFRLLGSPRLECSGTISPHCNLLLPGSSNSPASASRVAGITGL

inhibition at 1 µM [%] | inhibition at 10 µM [%] | IC50 [nM] | Compound
51.5 | 74 | > 500 | C/C(NCCN1CCOCC1)=C1/C(=O)Nc2cnc(-c3cnccc3C)cc21 [Example 86, (Z)-5-(4-Methylpyridin-3-yl)-3-(1-((2-morpholinoethyl)amino)ethylidene)-1H-pyrrolo[2,3-c]pyridin-2(3H)-one]
83.6 | 84.8 | < 50 | C/C(Nc1cnn(CCN2CCOCC2)c1)=C1/C(=O)Nc2cnc(-c3cnccc3C)cc21 [Example 87, (Z)-5-(4-Methylpyridin-3-yl)-3-(1-((1-(2-morpholinoethyl)-1H-pyrazol-4-yl)amino)ethylidene)-1H-pyrrolo[2,3-c]pyridin-2(3H)-one]
74.3 | 87.6 | 100 to 500 | C/C(Nc1cnn(C(C)(C)C#N)c1)=C1/C(=O)Nc2cnc(-c3c(C)noc3C)cc21 [Example 88, (Z)-2-(4-((1-(5-(3,5-Dimethylisoxazol-4-yl)-2-oxo-1H-pyrrolo[2,3-c]pyridin-3(2H)-ylidene)ethyl)amino)-1H-pyrazol-1-yl)-2-methylpropanenitrile]
77.3 | 76 | < 50 | C/C(Nc1cnn(C(C)C)c1)=C1/C(=O)Nc2cnc(-c3cnccc3C)cc21 [Example 89, (Z)-3-(1-((1-Isopropyl-1H-pyrazol-4-yl)amino)ethylidene)-5-(4-methylpyridin-3-yl)-1H-pyrrolo[2,3-c]pyridin-2(3H)-one]
72.7 | 75.6 | < 50 | CC(=O)N1CCC(n2cc(N/C(C)=C3\C(=O)Nc4cnc(-c5cnccc5C)cc43)cn2)CC1 [Example 90, (Z)-3-(1-((1-(1-Acetylpiperidin-4-yl)-1H-pyrazol-4-yl)amino)ethylidene)-5-(4-methylpyridin-3-yl)-1H-pyrrolo[2,3-c]pyridin-2(3H)-one]
79.7 |  | < 50 | CC/C(Nc1cnn(C(C)(C)C#N)c1)=C1/C(=O)Nc2cnc(-c3cnccc3C)cc21 [Example 91, (Z)-2-Methyl-2-(4-((1-(5-(4-methylpyridin-3-yl)-2-oxo-1H-pyrrolo[2,3-c]pyridin-3(2H)-ylidene)propyl)amino)-1H-pyrazol-1-yl)propanenitrile]
77 | 80.3 | < 50 | CC/C(Nc1ccn(C(C)(C)C#N)n1)=C1/C(=O)Nc2cnc(-c3cnccc3C)cc21 [Example 92, (Z)-2-Methyl-2-(3-((1-(5-(4-methylpyridin-3-yl)-2-oxo-1H-pyrrolo[2,3-c]pyridin-3(2H)-ylidene)propyl)amino)-1H-pyrazol-1-yl)propanenitrile]
73.8 | 76.4 | < 50 | COc1cccc(F)c1-c1cc2c(cn1)NC(=O)/C2=C(/C)Nc1ccn(C(C)(C)C#N)n1 [Example 93, (Z)-2-(3-((1-(5-(2-Fluoro-6-methoxyphenyl)-2-oxo-1H-pyrrolo[2,3-c]pyridin-3(2H)-ylidene)ethyl)amino)-1H-pyrazol-1-yl)-2-methylpropanenitrile]
66.8 | 75.4 | < 50 | CCS(=O)(=O)n1ccc(N/C(C)=C2\C(=O)Nc3cnc(-c4cnccc4C)cc32)n1 [Example 94, (Z)-3-(1-((1-(Ethylsulfonyl)-1H-pyrazol-3-yl)amino)ethylidene)-5-(4-methylpyridin-3-yl)-1H-pyrrolo[2,3-c]pyridin-2(3H)-one]
75.5 | 75.7 | < 50 | COc1ccncc1-c1cc2c(cn1)NC(=O)/C2=C(/C)Nc1ccn(C(C)(C)C#N)n1 [Example 95, (Z)-2-(3-((1-(5-(4-Methoxypyridin-3-yl)-2-oxo-1H-pyrrolo[2,3-c]pyridin-3(2H)-ylidene)ethyl)amino)-1H-pyrazol-1-yl)-2-methylpropanenitrile]
68.6 | 73.5 | < 50 | C/C(Nc1ccc(N2CCN(C3CC3)CC2)nc1)=C1/C(=O)Nc2cnc(-c3cnccc3C)cc21 [Example 96, (Z)-3-(1-((6-(4-Cyclopropylpiperazin-1-yl)pyridin-3-yl)amino)ethylidene)-5-(4-methylpyridin-3-yl)-1H-pyrrolo[2,3-c]pyridin-2(3H)-one]
59 | 59.9 | 100 to 500 | C/C(Nc1ccn(C(C)(C)C(N)=O)n1)=C1/C(=O)Nc2cnc(-c3cnccc3C)cc21 [Example 97, (Z)-2-Methyl-2-(3-((1-(5-(4-methylpyridin-3-yl)-2-oxo-1H-pyrrolo[2,3-c]pyridin-3(2H)-ylidene)ethyl)amino)-1H-pyrazol-1-yl)propanamide]
61 | 69 | 50 to 100 | C/C(Nc1ccn(C(C)(C)C#N)n1)=C1/C(=O)Nc2cnc(-c3ccccc3C)cc21 [Example 98, (Z)-2-Methyl-2-(3-((1-(2-oxo-5-(o-tolyl)-1H-pyrrolo[2,3-c]pyridin-3(2H)-ylidene)ethyl)amino)-1H-pyrazol-1-yl)propanenitrile]
70.1 | 78.6 | 50 to 100 | C/C(Nc1ccn(C(C)C)n1)=C1/C(=O)Nc2cnc(-c3cnccc3C)cc21 [Example 99, (Z)-3-(1-((1-Isopropyl-1H-pyrazol-3-yl)amino)ethylidene)-5-(4-methylpyridin-3-yl)-1H-pyrrolo[2,3-c]pyridin-2(3H)-one]
72.8 | 77 | < 50 | C/C(Nc1ccn(C)n1)=C1/C(=O)Nc2ccc(-c3cnccc3C)cc21 [Example 100, (Z)-3-(1-((1-Methyl-1H-pyrazol-3-yl)amino)ethylidene)-5-(4-methylpyridin-3-yl)indolin-2-one]
68 | 81.8 | < 50 | C/C(Nc1ccn(CCN2CCOCC2)n1)=C1/C(=O)Nc2cnc(-c3cnccc3C)cc21 [Example 101, (Z)-5-(4-Methylpyridin-3-yl)-3-(1-((1-(2-morpholinoethyl)-1H-pyrazol-3-yl)amino)ethylidene)-1H-pyrrolo[2,3-c]pyridin-2(3H)-one]
81.6 | 89.7 | < 50 | C/C(Nc1ccn(C2(C#N)CC2)n1)=C1/C(=O)Nc2cnc(-c3cnccc3C)cc21 [Example 102, (Z)-1-(3-((1-(5-(4-Methylpyridin-3-yl)-2-oxo-1H-pyrrolo[2,3-c]pyridin-3(2H)-ylidene)ethyl)amino)-1H-pyrazol-1-yl)cyclopropanecarbonitrile]
74.5 | 83.4 | < 50 | C/C(Nc1ccn(CC2CC2)n1)=C1/C(=O)Nc2cnc(-c3cnccc3C)cc21 [Example 103, (Z)-3-(1-((1-(Cyclopropylmethyl)-1H-pyrazol-3-yl)amino)ethylidene)-5-(4-methylpyridin-3-yl)-1H-pyrrolo[2,3-c]pyridin-2(3H)-one]
74.6 | 79.8 | < 50 | C/C(Nc1ccn(CC(C)(C)O)n1)=C1/C(=O)Nc2cnc(-c3cnccc3C)cc21 [Example 104, (Z)-3-(1-((1-(2-Hydroxy-2-methylpropyl)-1H-pyrazol-3-yl)amino)ethylidene)-5-(4-methylpyridin-3-yl)-1H-pyrrolo[2,3-c]pyridin-2(3H)-one]
79.8 | 84.4 | < 50 | C/C(Nc1cnn(C(C)(C)C#N)c1)=C1/C(=O)Nc2ccc(-c3cnccc3C)nc21 [Example 105, (Z)-2-Methyl-2-(4-((1-(5-(4-methylpyridin-3-yl)-2-oxo-1H-pyrrolo[3,2-b]pyridin-3(2H)-ylidene)ethyl)amino)-1H-pyrazol-1-yl)propanenitrile]
80 | 92.4 | < 50 | C/C(Nc1ccn(C(C)(C)C#N)n1)=C1/C(=O)Nc2cnc(-c3cncc(N)c3C)cc21 [Example 106, (Z)-2-(3-((1-(5-(5-Amino-4-methylpyridin-3-yl)-2-oxo-1H-pyrrolo[2,3-c]pyridin-3(2H)-ylidene)ethyl)amino)-1H-pyrazol-1-yl)-2-methylpropanenitrile]
72.3 | 80 | < 50 | C/C(Nc1ccc(N2CCOCC2)cn1)=C1/C(=O)Nc2cnc(-c3cnccc3C)cc21 [Example 107, (Z)-5-(4-Methylpyridin-3-yl)-3-(1-((5-morpholinopyridin-2-yl)amino)ethylidene)-1H-pyrrolo[2,3-c]pyridin-2(3H)-one]
74.2 | 77 | < 50 | COc1cccc(F)c1-c1cc2c(cn1)NC(=O)/C2=C(/C)Nc1ccc(N2CCNCC2)cc1 [Example 108, (Z)-5-(2-Fluoro-6-methoxyphenyl)-3-(1-((4-(piperazin-1-yl)phenyl)amino)ethylidene)-1H-pyrrolo[2,3-c]pyridin-2(3H)-one]
72.4 | 83.4 | < 50 | C/C(Nc1ccc(N(C)C)nc1)=C1/C(=O)Nc2cnc(-c3cnccc3C)cc21 [Example 109, (Z)-3-(1-((6-(Dimethylamino)pyridin-3-yl)amino)ethylidene)-5-(4-methylpyridin-3-yl)-1H-pyrrolo[2,3-c]pyridin-2(3H)-one]
74.4 | 74.3 | < 50 | C/C(Nc1ccn(CCC(C)(C)O)n1)=C1/C(=O)Nc2cnc(-c3cnccc3C)cc21 [Example 111]
73.3 | 75.9 | < 50 | CNC(=O)Cn1ccc(N/C(C)=C2\C(=O)Nc3cnc(-c4cnccc4C)cc32)n1 [Example 114]
